Results taken from US6340581B1, “Biological production of products from waste gases” (Bioengineering Resources, Inc., priority 1992, dated 2002).
Like-named read-outs stand apart in the source and are kept apart here.

Key:
[1] = Acetic acid distribution coefficient study: solvents for recovering acetic acid from the permeate; assay type: physicochemical
[2] = Distribution coefficients of mixed solvents; assay type: physicochemical; conditions: oleyl alcohol 10 cc plus Cyc or TBP
[3] = aqueous phase after contact with the solvent

## CCCC(=O)OCC [Ethyl butyrate]
[1]; [3]
  Equilibrium Aqueous Acetic Acid Concentration: 4.665 g/L
[1]; solvent vs aqueous phase
  Acetic Acid Distribution Coefficients: 0.42

## CCCCCCCCCCCCOC(C)=O [Dodecyl acetate]
[1]; [3]
  Equilibrium Aqueous Acetic Acid Concentration: 5.787 g/L
[1]; solvent vs aqueous phase
  Acetic Acid Distribution Coefficients: 0.15

## CCCCCC [Hexane]
[1]
  Acetic Acid Distribution Coefficients: 0.0
  Equilibrium Aqueous Acetic Acid Concentration: 6.559 g/L

## CCCCCCCC/C=C\CCCCCCCCO [Oleyl alcohol]
[2]
  Distribution Coefficients: 0.17
[1]; [3]
  Equilibrium Aqueous Acetic Acid Concentration: 5.114 g/L
[1]; solvent vs aqueous phase
  Acetic Acid Distribution Coefficients: 0.28

## O=C1CCCCC1 [Cyclohexanone]
[1]; [3]
  Equilibrium Aqueous Acetic Acid Concentration: 2.702 g/L
[1]; solvent vs aqueous phase
  Acetic Acid Distribution Coefficients: 1.66

## ClC(Cl)Cl [Chloroform]
[1]
  Acetic Acid Distribution Coefficients: 0.09
  Equilibrium Aqueous Acetic Acid Concentration: 5.128 g/L

## CCCCOP(=O)(O)OCCCC [Dibutyl phosphate]
[1]
  Acetic Acid Distribution Coefficients: 0.18
  Equilibrium Aqueous Acetic Acid Concentration: 4.615 g/L

## CCCCCCCCCCCO [Undecyl alcohol]
[1]; [3]
  Equilibrium Aqueous Acetic Acid Concentration: 4.528 g/L
[1]; solvent vs aqueous phase
  Acetic Acid Distribution Coefficients: 0.40

## Dexyl alcohol
[1]; [3]
  Equilibrium Aqueous Acetic Acid Concentration: 3.890 g/L
[1]; solvent vs aqueous phase
  Acetic Acid Distribution Coefficients: 0.42

## CCCCCCCCO [Octanol]
[1]; [3]
  Equilibrium Aqueous Acetic Acid Concentration: 4.358 g/L
[1]; solvent vs aqueous phase
  Acetic Acid Distribution Coefficients: 0.45

## CCCCCCCCCCCC [Dodecane]
[1]; [3]
  Equilibrium Aqueous Acetic Acid Concentration: 4.654 g/L
[1]; solvent vs aqueous phase
  Acetic Acid Distribution Coefficients: 0.13

## CCCCCCCCCCCCCCCC [Hexadecane]
[1]; [3]
  Equilibrium Aqueous Acetic Acid Concentration: 5.866 g/L
[1]; solvent vs aqueous phase
  Acetic Acid Distribution Coefficients: 1.13

## CCCCCCCCCC [Decane]
[1]; [3]
  Equilibrium Aqueous Acetic Acid Concentration: 5.968 g/L
[1]; solvent vs aqueous phase
  Acetic Acid Distribution Coefficients: 0.08

## CC1CCCC(O)C1 (centres unmarked) [3-methylcyclohexanol]
[1]; [3]
  Equilibrium Aqueous Acetic Acid Concentration: 2.110 g/L
[1]; solvent vs aqueous phase
  Acetic Acid Distribution Coefficients: 1.26

## CCCCC(CC)CO (centres unmarked) [2-ethyl-1-hexanol]
[1]; [3]
  Equilibrium Aqueous Acetic Acid Concentration: 3.308 g/L
[1]; solvent vs aqueous phase
  Acetic Acid Distribution Coefficients: 0.77

## CCOC(C)=O [Ethyl acetate]
[1]; [3]
  Equilibrium Aqueous Acetic Acid Concentration: 4.550 g/L
[1]; solvent vs aqueous phase
  Acetic Acid Distribution Coefficients: 0.41

## CCCCCCCCN(CCCCCCCC)CCCCCCCC [Trioctylamine]
[1]; [3]
  Equilibrium Aqueous Acetic Acid Concentration: 3.785 g/L
[1]; solvent vs aqueous phase
  Acetic Acid Distribution Coefficients: 0.31
